Data published in US20150374658A1, “COMPOSITION COMPRISING LICORICIDINE” (ANALYTICON DISCOVERY GMBH, priority 2012, published 2015).
Values after ≈ are worked out from the molar mass of the structure shown.

Tests used:
[1] = system: Corynebacterium xerosis DSM 20743 (ATCC 373); experiment: Classic assay, planktonic growth (OD580); assay type: cell-based; conditions: read-out: IC50, planktonic growth
Protocol: (§1) Corynebaterium xerosis is usually characterized as a rod-like gram positive bacterium. Under laboratory conditions (96 well plates) it takes ˜24 hours until Corynebaterium xerosis reaches stationary growth phase. Within this period planktonic growth can be quantified by spectroscopic means and a biofilm can be detected and quantified by standard crystal violet incorporation (c.f. O'Toole & Kolter, 1998, Mol. Microbiol. 28(3), 449-461). Planktonic growth denotes growth of non-adherent cells in the bulk liquid whereas biofilm denotes growth of cells adherent to solid surfaces.
(§2) Routine susceptibility testing of C. xerosis in high throughput format was done by simultaneous addition of test compounds and inoculum (“classic assay”). Growth of untreated (i.e. no extracts or test compounds added, control) planktonic cells ceased 7 hours after inoculation, and decreased by 13% at 24 hours. Biofilm development reached maximum 10 hours upon inoculation and kept constant for the rest of the test period (30 hours).
(§3) Formation of planktonic and biofilm cells was determined 18-24 hours after inoculation, thus at a time when some planktonic cells lysed. […]
(§4) Effects of test compounds were evaluated by comparison of turbidity (optical density, OD580) and crystal violet staining (biofilm; CV580) of treated and untreated samples (control; 100%). […]

[2] = system: Corynebacterium xerosis DSM 20743 (ATCC 373); experiment: Classic assay, biofilm formation (crystal violet, CV580); assay type: cell-based; conditions: read-out: IC50, biofilm growth mode
Protocol: as §1, §2, §3, §4

[3] = Stability assessment of licoricidine using different stabilizers (HPLC peak area, storage at 40° C.); assay type: physicochemical; conditions: HPLC UV 225 nm
Protocol: Five times 5 mg ethanolic extract (0.1%) were dissolved in 1.5 ml ethanol and 3.5 ml buffer pH 7. • To the first batch 20 mg citric acid (0.4%) were added as a stabilizer and the resulting batch was stored at 40° C. • To the second batch 50 mg citric acid (1.0%) were added as a stabilizer and the resulting batch was stored at 40° C. • To the third batch 20 mg ascorbic acid (0.4%) were added as a stabilizer and the resulting batch was stored at 40° C. • To the fourth batch 50 mg ascorbic acid (1.0%) were added as a stabilizer and the resulting batch was stored at 40° C. • The fifth batch was stored as a reference at −18° C.
30 mg lipophilic extract were dissolved in 30 ml safflower oil at 80° C.
The obtained solution was split into three batches: • To the first batch 10 mg/ml ascorbic acid palmitate were added as a stabilizer and the resulting batch was stored at 40° C. • To the second batch 10 mg/ml BHA (Butylhydroxyanisol) were added as a stabilizer and the resulting batch was stored at 40° C. • The third batch was stored as a reference at −18° C.
Dissolve 120 mg lipophilic extract in 30 ml safflower oil at 80° C.
Split in tree (3) batches: • Add to the first batch 10 mg/ml ascorbic acid palmitate as a stabilizer and store at 40° C. • Add to the second batch 10 mg/ml BHA (Butylhydroxyanisol) as a stabilizer and store at 40° C. • Freeze the third batch as a reference at −18° C.
• Add to 10 ml maceration oil 100 mg ascorbic acid palmitate as a stabilizer and store at 40° C. • Add to 10 ml maceration oil 100 mg BHA (Butylhydroxyanisol) as a stabilizer and store at 40° C. • Freeze 10 ml maceration oil as a reference at −18° C.
0.5 ml of the respective oil prepared according to any one of examples 5.1 to 5.4 was extracted with 3 ml methanole/water (9:1), centrifugated and the supernatant was used for the analysis.
• Column: Kromasil C18, 125×4 mm with pre-column • Detection: UV (225 nm) • Mobile Phase: A: water with 5 mM ammoniumformiate and 0.1% formic acid; • B: acetonitrile/methanol=1:1, 5 mM ammoniumformiate and 0.1% formic acid • Gradient: from 60% B to 80% B in 30 min • Flow: 0.8 ml/min • The retention time of the reference peak (licoricidine) is 16.9 (±0.2) min.

Row | SMILES | IC50 [1] [µg/mL] | IC50 [2] [µg/mL] | decrease of the peak area of licoricidine ([3]; aqueous solution (buffer pH 7 in addition of 30% ethanol) with 0.1% ethanolic extract and 1% citric acid, eight (8) weeks storage at 40° C.) | decrease of the peak area of licoricidine ([3]; maceration oil with addition of 1% BHA, twelve (12) weeks storage at 40° C.) | decrease of the peak area of licoricidine ([3]; safflower oil with 0.1% lipophilic extract, 1% BHA, twelve (12) weeks storage at 40° C.) | decrease of the peak area of licoricidine ([3]; safflower oil with 0.4% lipophilic extract, 1% BHA, twelve (12) weeks storage at 40° C.) | IC50 ([2]; serial dilutions, classic assay) [µg/mL]
1 | Oc1cc(Cl)ccc1Oc1ccc(Cl)cc1Cl [Triclosan, 5-chloro-2-(2,4-dichlorophenoxy)-phenol, reference compound] | 1.7 (≈ 5.87 µM) | 0.6 (≈ 2.07 µM) |  |  |  |  | 
2 | COc1c(CC=C(C)C)c(O)cc2c1C[C@H](c1ccc(O)c(CC=C(C)C)c1O)CO2 [licoricidine] |  |  | lower than 20% | lower than 20% | lower than 20% | lower than 20% | 4.3 (≈ 10.1 µM)
